According to article PMC10211317, “Identification of ARUK2002821 as an isoform-selective PI5P4Kα inhibitor” (RSC Medicinal Chemistry, 2023):

How the values were obtained:
Test in all cases: Premier Screen kinase panel (MRC PPU)
Assay type in all cases: biochemical
[1] = target: MELK (Homo sapiens, UniProt Q14680); conditions: MELK (Entrez MELK), read-out: Residual activity (%)
Experimental: (§1) room temperature with shaking for 30 minutes. The kinase concentration in the eluates was measured by qPCR.
(§2) using ADP-GloTM assay at the MRC PPU International Centre for Kinase Profiling, University of Dundee.
(§3) Conducted by MRC PPU International Centre
(§4) Conducted by MRC PPU International Centre for […]

[2] = target: RIPK2 (Homo sapiens, UniProt O43353); conditions: RIPK2 (Entrez RIPK2), read-out: Residual activity (%)
Experimental: as §1, §2, §3, §4

[3] = target: PRK2 (Homo sapiens, UniProt Q16513); conditions: PRK2 (Entrez PKN2), read-out: Residual activity (%)
Chain of PRK2 (Q16513 whole entry): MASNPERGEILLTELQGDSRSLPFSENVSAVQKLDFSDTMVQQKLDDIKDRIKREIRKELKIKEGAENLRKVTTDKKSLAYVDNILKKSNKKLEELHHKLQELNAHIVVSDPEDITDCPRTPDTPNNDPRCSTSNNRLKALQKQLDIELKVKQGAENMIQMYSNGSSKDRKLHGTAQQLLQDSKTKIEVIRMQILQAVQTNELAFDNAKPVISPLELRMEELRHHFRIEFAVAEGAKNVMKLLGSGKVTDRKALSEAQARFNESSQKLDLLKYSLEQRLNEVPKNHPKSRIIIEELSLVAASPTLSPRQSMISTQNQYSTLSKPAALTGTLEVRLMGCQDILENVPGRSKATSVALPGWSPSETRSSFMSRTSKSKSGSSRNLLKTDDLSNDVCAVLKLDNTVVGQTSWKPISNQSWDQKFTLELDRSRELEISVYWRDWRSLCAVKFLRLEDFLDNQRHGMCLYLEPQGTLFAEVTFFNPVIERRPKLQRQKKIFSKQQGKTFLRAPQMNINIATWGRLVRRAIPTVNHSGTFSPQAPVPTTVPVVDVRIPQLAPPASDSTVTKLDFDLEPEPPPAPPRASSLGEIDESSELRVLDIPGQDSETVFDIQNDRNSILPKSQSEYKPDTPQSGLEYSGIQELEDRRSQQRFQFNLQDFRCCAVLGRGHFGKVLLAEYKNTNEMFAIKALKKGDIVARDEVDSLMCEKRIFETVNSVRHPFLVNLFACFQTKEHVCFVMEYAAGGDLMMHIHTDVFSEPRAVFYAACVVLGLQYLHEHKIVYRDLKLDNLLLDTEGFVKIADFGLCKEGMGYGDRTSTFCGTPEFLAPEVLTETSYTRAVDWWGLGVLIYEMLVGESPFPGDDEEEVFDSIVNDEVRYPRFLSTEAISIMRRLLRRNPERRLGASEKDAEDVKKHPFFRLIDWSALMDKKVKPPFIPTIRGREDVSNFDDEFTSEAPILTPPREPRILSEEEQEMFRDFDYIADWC
Experimental: as §1, §2, §3, §4

[4] = target: MNK2 (Homo sapiens, UniProt Q9HBH9); conditions: MNK2 (Entrez MKNK2), read-out: Residual activity (%)
Chain of MNK2 (Q9HBH9 whole entry): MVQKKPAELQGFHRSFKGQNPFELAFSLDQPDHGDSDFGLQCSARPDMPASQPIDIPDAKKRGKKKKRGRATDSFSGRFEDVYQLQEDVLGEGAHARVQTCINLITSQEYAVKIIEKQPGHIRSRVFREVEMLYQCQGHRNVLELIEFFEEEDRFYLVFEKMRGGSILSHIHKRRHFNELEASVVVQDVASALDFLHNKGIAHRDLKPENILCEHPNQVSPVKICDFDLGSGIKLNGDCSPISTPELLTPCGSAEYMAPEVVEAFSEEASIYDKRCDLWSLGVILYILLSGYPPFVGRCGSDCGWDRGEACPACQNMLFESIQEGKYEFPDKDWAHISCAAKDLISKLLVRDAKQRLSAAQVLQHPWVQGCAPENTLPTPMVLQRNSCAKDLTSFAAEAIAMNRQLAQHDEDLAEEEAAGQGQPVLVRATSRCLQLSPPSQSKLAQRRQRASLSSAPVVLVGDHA
Experimental: as §1, §2, §3, §4

[5] = target: ULK2 (Homo sapiens, UniProt Q8IYT8); conditions: ULK2 (Entrez ULK2), read-out: Residual activity (%)
Experimental: as §1, §2, §3, §4

[6] = target: GCK (Homo sapiens, UniProt Q12851); conditions: read-out: Residual activity (%)
Experimental: as §1, §2, §3, §4

[7] = target: ASK1 (Homo sapiens, UniProt Q99683); conditions: ASK1 (Entrez MAP3K5), read-out: Residual activity (%)
Chain of ASK1 (Q99683 whole entry): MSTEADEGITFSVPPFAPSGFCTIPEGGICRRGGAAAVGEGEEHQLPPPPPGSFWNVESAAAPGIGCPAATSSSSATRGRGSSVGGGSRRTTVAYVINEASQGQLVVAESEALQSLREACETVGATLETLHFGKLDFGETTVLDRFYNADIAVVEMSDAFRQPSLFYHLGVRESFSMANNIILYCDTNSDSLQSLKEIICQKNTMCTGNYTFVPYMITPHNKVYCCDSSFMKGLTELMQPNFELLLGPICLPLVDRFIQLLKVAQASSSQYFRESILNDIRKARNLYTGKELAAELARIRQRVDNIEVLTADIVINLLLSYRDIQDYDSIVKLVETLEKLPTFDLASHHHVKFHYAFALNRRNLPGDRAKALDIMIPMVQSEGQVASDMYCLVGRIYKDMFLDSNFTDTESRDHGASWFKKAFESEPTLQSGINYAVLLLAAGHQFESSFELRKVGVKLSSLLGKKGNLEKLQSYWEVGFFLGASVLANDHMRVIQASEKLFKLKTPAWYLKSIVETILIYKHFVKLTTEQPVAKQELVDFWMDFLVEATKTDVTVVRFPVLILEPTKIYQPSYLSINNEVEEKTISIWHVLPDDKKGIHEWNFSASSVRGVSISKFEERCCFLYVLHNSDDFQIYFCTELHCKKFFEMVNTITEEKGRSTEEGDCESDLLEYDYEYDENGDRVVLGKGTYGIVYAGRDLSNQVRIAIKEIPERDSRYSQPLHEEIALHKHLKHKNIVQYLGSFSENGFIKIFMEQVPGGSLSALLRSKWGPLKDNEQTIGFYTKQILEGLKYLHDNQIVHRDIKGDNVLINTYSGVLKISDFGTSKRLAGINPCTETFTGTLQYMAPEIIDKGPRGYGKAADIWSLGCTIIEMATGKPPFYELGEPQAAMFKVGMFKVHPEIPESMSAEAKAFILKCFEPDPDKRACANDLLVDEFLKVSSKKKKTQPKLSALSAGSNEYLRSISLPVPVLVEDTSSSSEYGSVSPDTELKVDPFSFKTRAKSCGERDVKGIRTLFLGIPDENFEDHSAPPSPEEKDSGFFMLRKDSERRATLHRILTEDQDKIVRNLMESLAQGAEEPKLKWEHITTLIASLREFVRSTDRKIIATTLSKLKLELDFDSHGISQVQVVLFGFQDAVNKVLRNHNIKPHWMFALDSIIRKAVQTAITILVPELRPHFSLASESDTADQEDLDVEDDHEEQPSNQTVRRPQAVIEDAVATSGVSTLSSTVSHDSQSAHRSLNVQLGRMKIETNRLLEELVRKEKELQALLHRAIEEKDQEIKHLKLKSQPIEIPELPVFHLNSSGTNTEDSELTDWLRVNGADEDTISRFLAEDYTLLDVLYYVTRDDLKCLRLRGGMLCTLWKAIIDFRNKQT
Experimental: as §1, §2, §3, §4

[8] = target: TESK1 (Homo sapiens, UniProt Q15569); conditions: TESK1 (Entrez TESK1), read-out: Residual activity (%)
Experimental: as §1, §2, §3, §4

[9] = target: CK1γ2 (Homo sapiens, UniProt P78368); conditions: CK1γ2 (Entrez CSNK1D), read-out: Residual activity (%)
Experimental: as §1, §2, §3, §4

[10] = target: EPH-B2 (Homo sapiens, UniProt P29323); conditions: EPH-B2 (Entrez EPHB2), read-out: Residual activity (%)
Experimental: as §1, §2, §3, §4

[11] = target: SIK3 (Homo sapiens, UniProt Q9Y2K2); conditions: SIK3 (Entrez SIK3), read-out: Residual activity (%)
Experimental: as §1, §2, §3, §4

[12] = target: RSK2 (Homo sapiens, UniProt P51812); conditions: RSK2 (Entrez RPS6KA3), read-out: Residual activity (%)
Experimental: as §1, §2, §3, §4

[13] = target: CAMKKb (Homo sapiens, UniProt Q96RR4); conditions: CAMKKb (Entrez CAMKK2), read-out: Residual activity (%)
Experimental: as §1, §2, §3, §4

[14] = target: TTBK1 (Homo sapiens, UniProt Q5TCY1); conditions: TTBK1 (Entrez TTBK1), read-out: Residual activity (%)
Experimental: as §1, §2, §3, §4

[15] = target: DAPK1 (Homo sapiens, UniProt P53355); conditions: DAPK1 (Entrez DAPK1), read-out: Residual activity (%)
Experimental: as §1, §2, §3, §4

[16] = target: Lck (Homo sapiens, UniProt P06239); conditions: Lck (Entrez LCK), read-out: Residual activity (%)
Experimental: as §1, §2, §3, §4

[17] = target: PKBa (Homo sapiens, UniProt P31749); conditions: PKBa (Entrez AKT1), read-out: Residual activity (%)
Experimental: as §1, §2, §3, §4

[18] = target: PDK1 (Homo sapiens, UniProt O15530); conditions: PDK1 (Entrez PDPK1), read-out: Residual activity (%)
Chain of PDK1 (O15530 whole entry): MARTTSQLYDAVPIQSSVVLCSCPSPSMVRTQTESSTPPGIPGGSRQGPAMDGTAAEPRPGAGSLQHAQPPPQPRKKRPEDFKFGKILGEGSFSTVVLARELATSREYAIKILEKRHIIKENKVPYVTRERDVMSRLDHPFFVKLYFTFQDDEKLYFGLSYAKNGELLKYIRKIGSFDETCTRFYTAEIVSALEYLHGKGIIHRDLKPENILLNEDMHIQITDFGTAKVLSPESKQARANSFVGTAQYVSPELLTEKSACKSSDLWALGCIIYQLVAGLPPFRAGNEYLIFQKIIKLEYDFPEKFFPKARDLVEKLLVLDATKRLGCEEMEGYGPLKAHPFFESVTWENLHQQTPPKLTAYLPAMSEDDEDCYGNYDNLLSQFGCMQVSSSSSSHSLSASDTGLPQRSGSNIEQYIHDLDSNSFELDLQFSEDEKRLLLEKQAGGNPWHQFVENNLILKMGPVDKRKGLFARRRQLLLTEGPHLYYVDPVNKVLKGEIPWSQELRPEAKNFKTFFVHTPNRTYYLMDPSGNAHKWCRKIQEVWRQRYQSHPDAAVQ
Experimental: as §1, §2, §3, §4

[19] = target: PDGFRA (Homo sapiens, UniProt P16234); conditions: PDGFRA (Entrez PDGFRA), read-out: Residual activity (%)
Experimental: as §1, §2, §3, §4

[20] = target: MKK6 (Homo sapiens, UniProt P52564); conditions: MKK6 (Entrez MAP2K6), read-out: Residual activity (%)
Chain of MKK6 (P52564 whole entry): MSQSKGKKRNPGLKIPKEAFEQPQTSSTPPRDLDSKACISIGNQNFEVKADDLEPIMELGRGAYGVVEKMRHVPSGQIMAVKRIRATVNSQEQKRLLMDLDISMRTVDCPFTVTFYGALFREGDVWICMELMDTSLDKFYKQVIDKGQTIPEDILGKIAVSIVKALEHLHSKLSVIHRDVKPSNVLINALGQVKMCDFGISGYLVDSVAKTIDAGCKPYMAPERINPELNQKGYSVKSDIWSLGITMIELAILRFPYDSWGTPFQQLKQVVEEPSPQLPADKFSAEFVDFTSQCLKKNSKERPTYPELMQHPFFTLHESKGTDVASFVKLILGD
Experimental: as §1, §2, §3, §4

[21] = target: BRSK2 (Homo sapiens, UniProt Q8IWQ3); conditions: BRSK2 (Entrez BRSK2), read-out: Residual activity (%)
Experimental: as §1, §2, §3, §4

[22] = target: p38a MAPK (Homo sapiens, UniProt Q16539); conditions: p38a MAPK (Entrez MAPK14), read-out: Residual activity (%)
Experimental: as §1, §2, §3, §4

[23] = target: NEK2a (Homo sapiens, UniProt P51955); conditions: NEK2a (Entrez NEK2), read-out: Residual activity (%)
Chain of NEK2a (P51955 whole entry): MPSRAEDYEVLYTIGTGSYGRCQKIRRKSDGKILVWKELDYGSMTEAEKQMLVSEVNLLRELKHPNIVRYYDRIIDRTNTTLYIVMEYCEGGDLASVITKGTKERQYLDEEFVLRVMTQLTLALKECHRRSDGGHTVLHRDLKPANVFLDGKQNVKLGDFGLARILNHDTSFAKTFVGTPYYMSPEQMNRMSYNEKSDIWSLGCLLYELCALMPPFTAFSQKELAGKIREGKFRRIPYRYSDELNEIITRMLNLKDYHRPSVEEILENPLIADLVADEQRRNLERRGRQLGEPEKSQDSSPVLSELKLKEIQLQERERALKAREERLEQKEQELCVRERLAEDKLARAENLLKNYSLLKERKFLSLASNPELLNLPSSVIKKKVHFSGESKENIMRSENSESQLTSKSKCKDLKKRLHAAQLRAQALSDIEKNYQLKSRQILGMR
Experimental: as §1, §2, §3, §4

[24] = target: HER4 (Homo sapiens, UniProt Q15303); conditions: HER4 (Entrez ERBB4), read-out: Residual activity (%)
Experimental: as §1, §2, §3, §4

[25] = target: p38g MAPK (Homo sapiens, UniProt P53778); conditions: p38g MAPK (Entrez MAPK13), read-out: Residual activity (%)
Experimental: as §1, §2, §3, §4

[26] = target: IRAK4 (Homo sapiens, UniProt Q9NWZ3); conditions: IRAK4 (Entrez IRAK4), read-out: Residual activity (%)
Experimental: as §1, §2, §3, §4

[27] = target: IKKe (Homo sapiens, UniProt Q14164); conditions: IKKe (Entrez IKBKE), read-out: Residual activity (%)
Chain of IKKe (Q14164 whole entry): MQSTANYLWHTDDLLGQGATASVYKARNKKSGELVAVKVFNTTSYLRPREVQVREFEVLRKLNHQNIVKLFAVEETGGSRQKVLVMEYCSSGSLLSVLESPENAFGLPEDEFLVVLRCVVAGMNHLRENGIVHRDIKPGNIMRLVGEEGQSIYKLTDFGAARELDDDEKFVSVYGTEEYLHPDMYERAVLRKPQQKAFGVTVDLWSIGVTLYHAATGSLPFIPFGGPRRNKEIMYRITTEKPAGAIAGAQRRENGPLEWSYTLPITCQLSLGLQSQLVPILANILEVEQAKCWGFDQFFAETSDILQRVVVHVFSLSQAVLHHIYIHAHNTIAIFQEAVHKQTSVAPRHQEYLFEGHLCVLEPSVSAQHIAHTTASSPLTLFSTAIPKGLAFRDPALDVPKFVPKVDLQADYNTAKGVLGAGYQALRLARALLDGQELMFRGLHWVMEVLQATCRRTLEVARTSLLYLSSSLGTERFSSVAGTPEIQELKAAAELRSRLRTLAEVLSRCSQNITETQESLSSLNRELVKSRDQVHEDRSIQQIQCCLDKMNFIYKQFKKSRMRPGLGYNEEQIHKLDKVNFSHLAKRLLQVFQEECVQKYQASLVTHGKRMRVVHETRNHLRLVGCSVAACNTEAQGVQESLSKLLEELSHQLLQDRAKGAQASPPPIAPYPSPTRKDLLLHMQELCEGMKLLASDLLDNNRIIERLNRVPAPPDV
Experimental: as §1, §2, §3, §4

[28] = target: ROCK 2 (Rattus norvegicus, UniProt Q62868); conditions: ROCK 2 (Entrez ROCK2), read-out: Residual activity (%)
Experimental: as §1, §2, §3, §4

[29] = target: DDR2 (Homo sapiens, UniProt Q16832); conditions: DDR2 (Entrez DDR2), read-out: Residual activity (%)
Experimental: as §1, §2, §3, §4

[30] = target: SRPK1 (Homo sapiens, UniProt Q96SB4); conditions: SRPK1 (Entrez SRPK1), read-out: Residual activity (%)
Experimental: as §1, §2, §3, §4

[31] = target: IRAK1 (Homo sapiens, UniProt P51617); conditions: IRAK1 (Entrez IRAK1), read-out: Residual activity (%)
Experimental: as §1, §2, §3, §4

COc1ccc(Nc2ncnc3c2ccn3-c2ccc(C)c(C)c2)cc1Cl [compound 36] was tested, and the remaining activity at 1 µM [1] was 92%, the remaining activity at 1 µM [2] was 92% and the remaining activity at 1 µM [3] was 86%. It also gave a remaining activity at 1 µM [4] of 90%, a remaining activity at 1 µM [5] of 92% and a remaining activity at 1 µM [6] of 105%. It also gave a remaining activity at 1 µM [7] of 107%, a remaining activity at 1 µM [8] of 88% and a remaining activity at 1 µM [9] of 92%. It also gave a remaining activity at 1 µM [10] of 97%, a remaining activity at 1 µM [11] of 123% and a remaining activity at 1 µM [12] of 77%. For the same compound, the remaining activity at 1 µM [13] was 96%, the remaining activity at 1 µM [14] was 68% and the remaining activity at 1 µM [15] was 118%. It also gave a remaining activity at 1 µM [16] of 95%, a remaining activity at 1 µM [17] of 90% and a remaining activity at 1 µM [18] of 133%. For the same compound, the remaining activity at 1 µM [19] was 70%, the remaining activity at 1 µM [20] was 115% and the remaining activity at 1 µM [21] was 111%. The remaining activity at 1 µM [22] was 98%, the remaining activity at 1 µM [23] was 86% and the remaining activity at 1 µM [24] was 80%. It also gave a remaining activity at 1 µM [25] of 101%, a remaining activity at 1 µM [26] of 113% and a remaining activity at 1 µM [27] of 89%. For the same compound, the remaining activity at 1 µM [28] was 96%, the remaining activity at 1 µM [29] was 115% and the remaining activity at 1 µM [30] was 99%. It also gave a remaining activity at 1 µM [31] of 98%.
